Our source for the IC50 values is ChEMBL document CHEMBL5726990, “Thiazolidinones as cellular anandamide uptake inhibitors and their use in the treatment of psychiatric or neurological disorders and inflammation, in particular neuroinflammation” (2019).

This assay in a line: [3H]-AEA Cellular Uptake: Screening for AEA cellular uptake inhibition was performed in a semi-automated procedure: Pipetting and washing steps were performed by a Biomek3000 laboratory workstation. First, required amounts of U937 cells were centrifuged at 100×g for 5 min and resuspended in RPMI (37° C.) to a final concentration of 2×10^6 cells/mL. Then, 250 μL of cell suspension (0.5×10^6 cells per sample) were transferred into AquaSil™ silanized glass vials (Chromacol 1.1-MTV) in 96-well format. After addition of 5 μL vehicle (DMSO) or compounds the cells were incubated at 37° C. for 15 min. As positive controls OMDM-2 and UCM707 were used at 10 μM in each run. The ETI-T compounds were measured at up to 7 concentrations in triplicates from 100 pM-100 μM. After pre-incubation, a mixture of 0.5 nM[ethanolamine-1-3H]-AEA, (60 Ci/mmol) and 99.5 nM of cold AEA (final 100 nM) was added and samples were incubated at 37° C. for another 15 min. The reaction was stopped by rapid filtration over UniFilter-96 GF/C filters (PerkinElmer) pre-soaked with PBS 0.25% BSA. Cells were washed three times with 100 μL ice-cold PBS buffer containing 1% fatty acid free BSA. After drying, 45 μL MicroScint 20 scintillation cocktail (PerkinElmer, Waltham, Mass., US) was added to the wells and the plate was sealed. Radioactivity was measured by liquid scintillation counting on a PerkinElmer Wallac Trilux MicroBeta 1450 during 2 min. Non-specific binding of [3H]AEA (100 nM) to the glass vials was never higher than 10%. IC50 values were calculated by GraphPad® by non-linear regression using the built-in log(inhibitor) vs. response-variable slope (four parameters) function. Particulars: U-937.

Broadly, the IC50 is the concentration at which inhibition is half-maximal. Consider `CC/N=C1\S/C(=C\c2ccc(O)c(OCC)c2)C(=O)N1CC`, for which the IC50 is 0.145 µM. As for `O=C1/C(=C/c2ccc(O)cc2)S/C(=N\c2ccccc2)N1OC1=CC=CC1`, the figure is 0.434 µM; as for `CCCN1C(=O)/C(=C\c2ccc(C(C)C)cc2)S/C1=N\c1ccccc1`, 0.355 µM.
